# Test results from ChEMBL document CHEMBL1828515, “Pantolactams as androgen receptor antagonists for the topical suppression of sebum production” (Bioorg Med Chem Lett, 2011).
# Experiments:
# [1] = molecular target: T1, Androgen receptor (Homo sapiens, UniProt P10275); test: Antagonist activity at human androgen receptor by cell based assay; format: functional
# T1 sequence (P10275 whole entry): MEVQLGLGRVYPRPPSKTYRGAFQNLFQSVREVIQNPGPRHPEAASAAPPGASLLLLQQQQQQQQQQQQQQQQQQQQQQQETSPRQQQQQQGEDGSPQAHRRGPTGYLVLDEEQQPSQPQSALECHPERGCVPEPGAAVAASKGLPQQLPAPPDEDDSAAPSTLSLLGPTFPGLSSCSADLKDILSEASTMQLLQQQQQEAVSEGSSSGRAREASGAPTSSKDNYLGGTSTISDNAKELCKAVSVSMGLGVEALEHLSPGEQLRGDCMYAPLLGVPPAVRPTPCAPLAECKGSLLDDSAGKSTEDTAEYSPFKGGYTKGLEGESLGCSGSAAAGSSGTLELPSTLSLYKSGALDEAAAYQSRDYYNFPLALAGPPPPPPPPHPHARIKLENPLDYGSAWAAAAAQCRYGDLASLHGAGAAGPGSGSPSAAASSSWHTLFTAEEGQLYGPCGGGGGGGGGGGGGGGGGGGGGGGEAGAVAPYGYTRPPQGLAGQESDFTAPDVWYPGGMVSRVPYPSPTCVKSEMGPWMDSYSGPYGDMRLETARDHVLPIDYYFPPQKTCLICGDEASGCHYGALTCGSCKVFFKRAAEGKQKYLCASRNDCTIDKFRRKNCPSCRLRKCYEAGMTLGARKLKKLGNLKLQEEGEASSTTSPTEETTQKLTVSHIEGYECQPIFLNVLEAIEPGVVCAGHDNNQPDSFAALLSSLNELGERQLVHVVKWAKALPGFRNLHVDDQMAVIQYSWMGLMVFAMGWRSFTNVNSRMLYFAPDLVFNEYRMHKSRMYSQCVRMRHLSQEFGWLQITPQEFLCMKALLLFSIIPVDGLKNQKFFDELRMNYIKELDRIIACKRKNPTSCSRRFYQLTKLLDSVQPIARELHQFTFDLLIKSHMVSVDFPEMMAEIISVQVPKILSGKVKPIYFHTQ
# [2] = molecular target: T1, Androgen receptor; test: Binding affinity to human androgen receptor
# [3] = tested on: Syrian golden hamster; test: Reduction of cholesterol ester in Syrian golden hamster ear model at 1.5 % administered topically; format: functional, Mesocricetus auratus; set-up: scale not given: the % may be the effect or the level left
# [4] = tested on: Syrian golden hamster; test: Reduction of wax ester in Syrian golden hamster ear model at 1.5 % administered topically; format: functional, Mesocricetus auratus; set-up: scale not given: the % may be the effect or the level left
# [5] = tested on: Syrian golden hamster; test: Reduction of cholesterol ester in Syrian golden hamster ear model at 1 % administered topically; format: functional, Mesocricetus auratus; set-up: scale not given: the % may be the effect or the level left
# [6] = tested on: Syrian golden hamster; test: Reduction of wax ester in Syrian golden hamster ear model at 1 % administered topically; format: functional, Mesocricetus auratus; set-up: scale not given: the % may be the effect or the level left
# [7] = tested on: Syrian golden hamster; test: Reduction of cholesterol ester in Syrian golden hamster ear model at 3 % administered topically; format: functional, Mesocricetus auratus; set-up: scale not given: the % may be the effect or the level left
# [8] = tested on: Syrian golden hamster; test: Reduction of wax ester in Syrian golden hamster ear model at 3 % administered topically; format: functional, Mesocricetus auratus; set-up: scale not given: the % may be the effect or the level left
# [9] = tested on: Syrian golden hamster; test: Reduction of wax ester in Syrian golden hamster ear model at 2 % administered topically; format: functional, Mesocricetus auratus; set-up: scale not given: the % may be the effect or the level left
# [10] = tested on: Syrian golden hamster; test: Reduction of cholesterol ester in Syrian golden hamster ear model at 2 % administered topically; format: functional, Mesocricetus auratus; set-up: scale not given: the % may be the effect or the level left
Compound,IC50 [1] [nM],IC50 [2] [nM],other results
CC1(C)CN(Cc2noc(-c3ccccc3)n2)C(=O)C1Oc1ccc(C#N)c(C(F)(F)F)c1 (racemic),40,84,
COC(=O)CN1CC(C)(C)C(Oc2ccc(C#N)c(C(F)(F)F)c2)C1=O (racemic),,494,
CSCCN1CC(C)(C)C(Oc2ccc(C#N)c(C(F)(F)F)c2)C1=O (racemic),,2450,
CC1(C)CN(Cc2cccnc2)C(=O)C1Oc1ccc(C#N)c(C(F)(F)F)c1 (racemic),,880,
Cc1nc(CN2CC(C)(C)C(Oc3ccc(C#N)c(C(F)(F)F)c3)C2=O)cs1 (racemic),,324,
"CSc1ccc(CN2CC(C)(C)C(Oc3ccc(C#N)c(C(F)(F)F)c3)C2=O)cc1 (single isomer, unassigned; (+))",28,316,Activity [3]: 75%; Activity [4]: 89%
CC1(C)COC(=O)C1Oc1ccc(C#N)c(C(F)(F)F)c1 (racemic),70,113,
COc1ccc(CN2CC(C)(C)C(Oc3ccc(C#N)c(C(F)(F)F)c3)C2=O)cc1 (racemic),,284,
CC1(C)CN(CCCO)C(=O)C1Oc1ccc(C#N)c(C(F)(F)F)c1 (racemic),,523,
CC1(C)CN(Cc2nc3ccccc3s2)C(=O)C1Oc1ccc(C#N)c(C(F)(F)F)c1 (racemic),51,,
"CCC(C)N1CC(C)(C)C(Oc2ccc(C#N)c(C(F)(F)F)c2)C1=O (single isomer, unassigned; (+))",32,132,
CC1(C)CN(Cc2cccc(O)c2)C(=O)C1Oc1ccc(C#N)c(C(F)(F)F)c1 (racemic),> 600,,
CC1(C)COC(=O)[C@H]1Oc1ccc(C#N)c(C(F)(F)F)c1,1000,10000,
CC1(C)CN(Cc2ccccn2)C(=O)C1Oc1ccc(C#N)c(C(F)(F)F)c1 (racemic),,767,
CCC(CC)CN1CC(C)(C)C(Oc2ccc(C#N)c(C(F)(F)F)c2)C1=O (racemic),,444,
"CCCN1CC(C)(C)C(Oc2ccc(C#N)c(C(F)(F)F)c2)C1=O (single isomer, unassigned; (+))",83,225,Activity [5]: 76%; Activity [6]: 85%
CCOC(=O)CN1CC(C)(C)C(Oc2ccc(C#N)c(C(F)(F)F)c2)C1=O (racemic),,3520,
CC1(C)CN(Cc2nc(-c3ccccc3)no2)C(=O)C1Oc1ccc(C#N)c(C(F)(F)F)c1 (racemic),54,,
"CC1(C)CN(Cc2ccccc2)C(=O)C1Oc1ccc(C#N)c(C(F)(F)F)c1 (single isomer, unassigned; (+))",38,100,Activity [7]: 68%; Activity [8]: 83%
CC1(C)CNC(=O)C1Oc1ccc(C#N)c(C(F)(F)F)c1 (racemic),82,2790,
CC1(C)CN(Cc2cccc(F)c2)C(=O)C1Oc1ccc(C#N)c(C(F)(F)F)c1 (racemic),61,48,
CCCC(C)N1CC(C)(C)C(Oc2ccc(C#N)c(C(F)(F)F)c2)C1=O (racemic),6,200,
CCCCN1CC(C)(C)C(Oc2ccc(C#N)c(C(F)(F)F)c2)C1=O (racemic),16,119,

Compound,IC50 [1] [nM],IC50 [2] [nM],other results
CC1(C)CN(Cc2ccc(F)cc2)C(=O)C1Oc1ccc(C#N)c(C(F)(F)F)c1 (racemic),199,,
CC1(C)C(=O)N(c2ccc(C#N)c(C(F)(F)F)c2)C(=O)N1CCCCO [RU-58841],,,Activity [6]: 95%
COC(=O)c1csc(CN2CC(C)(C)C(Oc3ccc(C#N)c(C(F)(F)F)c3)C2=O)n1 (racemic),> 900,,
CC1(C)CN(Cc2ccccc2F)C(=O)C1Oc1ccc(C#N)c(C(F)(F)F)c1 (racemic),44,174,
COCCN1CC(C)(C)C(Oc2ccc(C#N)c(C(F)(F)F)c2)C1=O (racemic),,1770,
CCCN1CC(C)(C)C(Oc2ccc(C#N)c(C(F)(F)F)c2)C1=O (racemic),24,,
CC(C)CCCN1CC(C)(C)C(Oc2ccc(C#N)c(C(F)(F)F)c2)C1=O (racemic),,802,
CC1(C)CN(Cc2ccc(O)cc2)C(=O)C1Oc1ccc(C#N)c(C(F)(F)F)c1 (racemic),32,,
CC1(C)CN(Cc2ccncc2)C(=O)C1Oc1ccc(C#N)c(C(F)(F)F)c1 (racemic),> 600,,
CCC(C)N1CC(C)(C)C(Oc2ccc(C#N)c(C(F)(F)F)c2)C1=O (stereo in doubt; 18),,9790,
COc1cccc(CN2CC(C)(C)C(Oc3ccc(C#N)c(C(F)(F)F)c3)C2=O)c1 (racemic),309,,
"CC1(C)CN(Cc2ccccc2F)C(=O)C1Oc1ccc(C#N)c(C(F)(F)F)c1 (single isomer, unassigned; (+))",92,112,Activity [7]: 70%; Activity [8]: 86%
CC1(C)CN(Cc2ccccc2O)C(=O)C1Oc1ccc(C#N)c(C(F)(F)F)c1 (racemic),13,,
COCN1CC(C)(C)C(Oc2ccc(C#N)c(C(F)(F)F)c2)C1=O (racemic),,516,
CC1(C)CN(Cc2ccccc2)C(=O)C1Oc1ccc(C#N)c(C(F)(F)F)c1 (racemic),11,30,
CN1CC(C)(C)C(Oc2ccc(C#N)c(C(F)(F)F)c2)C1=O (racemic),,1210,
"CCCCN1CC(C)(C)C(Oc2ccc(C#N)c(C(F)(F)F)c2)C1=O (single isomer, unassigned; (+))",10,91,Activity [9]: 83%; Activity [10]: 66%
CCOC(=O)c1ccc(CN2CC(C)(C)C(Oc3ccc(C#N)c(C(F)(F)F)c3)C2=O)o1 (racemic),97,166,
CC1(C)COC(=O)[C@@H]1Oc1ccc(C#N)c(C(F)(F)F)c1,42,70,
CSc1ccc(CN2CC(C)(C)C(Oc3ccc(C#N)c(C(F)(F)F)c3)C2=O)cc1 (stereo in doubt; 38),51,187,
CCCCCCN1CC(C)(C)C(Oc2ccc(C#N)c(C(F)(F)F)c2)C1=O (racemic),,766,
CCNC(=O)CN1CC(C)(C)C(Oc2ccc(C#N)c(C(F)(F)F)c2)C1=O (racemic),,4910,
